# According to patent US5541175A, “Cephalosporin antibiotics” (Lucky, Ltd., priority 1993, dated 1996):
# What was measured:
# [1] = system: Citrobacter diversus 2046E; test: Minimum inhibitory concentration (agar 2-fold dilution); assay type: cell-based; conditions: Citrobacter koseri; C. diversus 2046E; Muller-Hinton agar, 37° C., 20 hours; read-out: Minimum Inhibitory Concentration
# Procedure: (§1) The minimum inhibitory concentration was determined by diluting the test compounds according to 2-fold dilution, suspending them in Muller-Hinton agar medium, inoculating 2 μl of the suspension containing the test strains having 10^7 CFU (Colony Forming Unit) per 1 ml into the medium and then culturing the test strains at 37° C. for 20 hours.
# [2] = system: Klebsiella aerogenes SHV-1 1976E; test: as above; assay type: cell-based; conditions: SHV11976E, K. aerogenes SHV-1 1976E, Muller-Hinton agar, 37° C., 20 hours
# Procedure: as §1
# [3] = system: Enterobacter cloacae IND + VE 1194E; test: as above; assay type: cell-based; conditions: E. cloacae IND + VE 1194E, Muller-Hinton agar, 37° C., 20 hours, read-out: Minimum Inhibitory Concentration
# Procedure: as §1
# Enterobacter cloacae P99 = test: as above; assay type: cell-based; conditions: P99, 20 h, read-out: Minimum Inhibitory Concentration
# Procedure: as §1
# [4] = system: Acinetobacter calcoaceticus 15473A; test: as above; assay type: cell-based; conditions: A. calcoaceticus 15473A, Muller-Hinton agar, 37° C., 20 hours, read-out: Minimum Inhibitory Concentration
# Procedure: as §1
# [5] = system: Serratia marcescens 1826E; test: as above; assay type: cell-based; conditions: S. marcescens 1826E, Muller-Hinton agar, 37° C., 20 hours, read-out: Minimum Inhibitory Concentration
# Procedure: as §1
# [6] = system: Escherichia coli TEM3 3455E; test: as above; assay type: cell-based; conditions: TEM33455E, 20 h, read-out: Minimum Inhibitory Concentration
# Procedure: as §1
# [7] = system: Staphylococcus aureus epidermidis 887E; test: as above; assay type: cell-based; conditions: S. aureus epidermidis 887E, Muller-Hinton agar, 37° C., 20 hours, read-out: Minimum Inhibitory Concentration
# Procedure: as §1
# Escherichia coli 851E = test: as above; assay type: cell-based; conditions: E. coli 851E, Muller-Hinton agar, 37° C., 20 hours
# Procedure: as §1
# [8] = system: Escherichia coli TEM7 3457E; test: as above; assay type: cell-based; conditions: TEM73457E, 20 h, read-out: Minimum Inhibitory Concentration
# Procedure: as §1
# [9] = system: Klebsiella aerogenes K1 + 1082E; test: as above; assay type: cell-based; conditions: 20 h, read-out: Minimum Inhibitory Concentration
# Procedure: as §1
# [10] = system: Pseudomonas aeruginosa 10145; test: as above; assay type: cell-based; conditions: Pseudomonas aeruginosa; P. aeruginosa 10145; Muller-Hinton agar, 37° C., 20 hours; read-out: Minimum Inhibitory Concentration
# Procedure: as §1
# Escherichia coli 10536 = test: as above; assay type: cell-based; conditions: Escherichia coli; E. coli 10536; Muller-Hinton agar, 37° C., 20 hours; read-out: Minimum Inhibitory Concentration
# Procedure: as §1
# [11] = system: Salmonella typhimurium 14028A; test: as above; assay type: cell-based; conditions: Salmonella enterica; S. typhimurium 14028A; Muller-Hinton agar, 37° C., 20 hours; read-out: Minimum Inhibitory Concentration
# Procedure: as §1
# [12] = system: Streptococcus faecalis 29212A; test: as above; assay type: cell-based; conditions: Enterococcus faecalis; S. faecalis 29212A; Muller-Hinton agar, 37° C., 20 hours; read-out: Minimum Inhibitory Concentration
# Procedure: as §1
# [13] = system: Staphylococcus aureus 241; test: as above; assay type: cell-based; conditions: Staphylococcus aureus; S. aureus 241; Muller-Hinton agar, 37° C., 20 hours; read-out: Minimum Inhibitory Concentration
# Procedure: as §1
# [14] = system: Pseudomonas aeruginosa 6065; test: as above; assay type: cell-based; conditions: Pseudomonas aeruginosa; P. aeruginosa 6065; Muller-Hinton agar, 37° C., 20 hours; read-out: Minimum Inhibitory Concentration
# Procedure: as §1
# [15] = system: Escherichia coli TEM5 3739E; test: as above; assay type: cell-based; conditions: TEM53739E, 20 h, read-out: Minimum Inhibitory Concentration
# Procedure: as §1
# [16] = system: Staphylococcus aureus giorgio; test: as above; assay type: cell-based; conditions: S. aureus giorgio, Muller-Hinton agar, 37° C., 20 hours, read-out: Minimum Inhibitory Concentration
# Procedure: as §1
# Escherichia coli 3190Y = test: as above; assay type: cell-based; conditions: E. coli 3190Y, Muller-Hinton agar, 37° C., 20 hours, read-out: Minimum Inhibitory Concentration
# Procedure: as §1
# Proteus vulgaris 6059A = test: as above; assay type: cell-based; conditions: P. vulgaris 6059A, Muller-Hinton agar, 37° C., 20 hours, read-out: Minimum Inhibitory Concentration
# Procedure: as §1
# [17] = system: Staphylococcus aureus 6538P; test: as above; assay type: cell-based; conditions: S. aureus 6538P, Muller-Hinton agar, 37° C., 20 hours, read-out: Minimum Inhibitory Concentration
# Procedure: as §1
# Staphylococcus aureus 77 = test: as above; assay type: cell-based; conditions: Staphylococcus aureus; S. aureus 77; Muller-Hinton agar, 37° C., 20 hours; read-out: Minimum Inhibitory Concentration
# Procedure: as §1
# [18] = system: Escherichia coli TEM9 2639E; test: as above; assay type: cell-based; conditions: TEM92639E, 20 h, read-out: Minimum Inhibitory Concentration
# Procedure: as §1
# [19] = system: Pseudomonas aeruginosa 1912E; test: as above; assay type: cell-based; conditions: P. aeruginosa 1912E, Muller-Hinton agar, 37° C., 20 hours, read-out: Minimum Inhibitory Concentration
# Procedure: as §1
# [20] = system: Escherichia coli TEM1 1193E; test: as above; assay type: cell-based; conditions: TEM11193E, 20 h, read-out: Minimum Inhibitory Concentration
# Procedure: as §1
# [21] = Pharmacokinetic properties in rats (blood concentration by agar well biological assay); parameters: species or system SD rats (male); conditions: rat, in vivo, iv, 20 mg/kg
# Procedure: The pharmacokinetic properties of the compound of the present invention were determined using SD rats (.male.) weighing 230±10 g. Specifically,the test samples were injected into femoral vein in an amount of 20 mg/kg to 4 to 5 test animals. Blood was taken from femoral vein 1, 2.5, 5, 10, 20, 40, 60, 120 and 180 minutes after administration and then subjected to a biological assay using agar well method to measure the blood concentration.
structure (smiles),measurement,setting,value
"Nc1nc(/C(=N/O[C@H](C(=O)O)c2ccc(O)c(O)c2)C(=O)N[C@@H]2C(=O)N3C(C(=O)[O-])=C(/C=C/C[n+]4cnc(N)c(N)c4N)CS[C@H]23)cs1 [Compound I-5a, 7-[(Z)-2-(2-aminothiazol-4-yl)-2-(α-carboxy-3,4-dihydroxybenzyloxyimino)acetamido]-3-[(E)-3-(4,5,6-triaminopyrimidinium-1-yl)-1-propen-1-yl]-3-cephem-4-carboxylate]",MIC,[1],0.13 µg/mL
same,MIC,[2],0.5 µg/mL
same,MIC,[3],1 µg/mL
same,MIC,Enterobacter cloacae P99,8 µg/mL
same,MIC,[4],0.5 µg/mL
same,MIC,[5],0.5 µg/mL
same,MIC,[6],0.063 µg/mL
same,MIC,[7],64 µg/mL
same,MIC,Escherichia coli 851E,0.063 µg/mL
same,MIC,[8],0.031 µg/mL
same,MIC,[9],0.063 µg/mL
same,MIC,[10],0.25 µg/mL
same,MIC,Escherichia coli 10536,0.016 µg/mL
same,MIC,[11],0.03 µg/mL
same,MIC,[12],4 µg/mL
same,MIC,[13],128 µg/mL
same,MIC,[14],4 µg/mL
same,MIC,[15],0.5 µg/mL
same,MIC,[16],0.25 µg/mL
same,MIC,Escherichia coli 3190Y,0.063 µg/mL
same,MIC,Proteus vulgaris 6059A,0.063 µg/mL
same,MIC,[17],0.5 µg/mL
same,MIC,Staphylococcus aureus 77,2 µg/mL
same,MIC,[18],1 µg/mL
same,MIC,[19],0.5 µg/mL
same,MIC,[20],0.063 µg/mL
same,AUC,[21],49600 ng·h/mL
same,half-life,[21],41 min
